Experiment [1] concerns T.b. brucei, T.b. gambiense and T.b. rhodesiense. In words: Cultivated bloodstream trypomastigote (TRY) in-vitro screen. The format is cell-based. The source says:
Culture systems developed in the last decade have used mammalian cell feeder layers to support the growth of dividing populations of bloodstream trypomastigotes of T. brucei spp. Some of these systems have been used in chemotherapy studies, including; (1) bovine fibroblast culture - T. brucei models to test some standard and experimental compounds, (2) murine bone marrow culture - T.b. gambiense model to screen inosine analogues and platinum and hypolipidemic compounds, and (3) Microtus embryonic fibroblast culture (MEF) - T.b. rhodesiense model to test standard and experimental drugs. These systems give a good indication of in-vivo activity (see Table 3). They measure activity against dividing cells rather than specific macromolecular synthesis pathways and can be readily established in micro-titre plates. The MEF and bone marrow cell feeder layers can be used to grow a range of strains of T. brucei spp., offering the possibility of examining variations in drug susceptibility and resistance between strains. The presence of a feeder layer, however, limits the opportunities for the automation of these systems.
(§1) In-vitro and in-vivo models were used to test activities of a selection of many compounds. Those activities are summarized in Tables 1-3, showing variation between systems and species. Activities measured in the MP mo and HM mo models have shown the best correlation with results obtained in hamster and mouse models.

Experiment [2] has the same test system. As to the kind of experiment: Procyclic trypomastigote (TRY) in-vitro screen. Further: key: - no/poor activity,; + fair/moderate activity,; ++ good/excellent activity. The format is cell-based. How it is done:
(§2) Primary screening for new trypanocides has made extensive use of rodent systems, in which host survival time is a simple indicator of drug activity. In-vitro screens have used a variety of trypomastigote types (see Table 3, below). […] Most early in-vitro screens employed a short test in which bloodstream trypomastigotes were isolated from an infected rodent and maintained for up to 24 h in a simple drug-containing media. Two significant modifications of this technique include maintaining isolated bloodstream trypomastigotes in drug-containing media for 3-4 hours at 37° C in micro-titre plates and their subsequent viability assessed by the uptake of radiolabelled precursors or motility and infectivity to mice.
as §1

Experiment [3] shares this test system. In words: African trypanosomiasis mouse model, in-vivo. How it is done: as §2, §1
For experiment [4] the test system is unchanged. As to the kind of experiment: Isolated bloodstream trypomastigote (TRY) in-vitro screen. The class given is cell-based. How it is done:
as §2
In-vitro studies on isolated bloodstream trypomastigotes were also used in the rational biochemical approaches towards the chemotherapy of T. brucei infections involving inhibitors of carbohydrate catabolism salicyl hydroxamic acid plus glycerol), of polyamine synthesis (methylgyoxal bis-guanylhydrazone and - DFMO), and of surface coat glycoprotein synthesis (Tunicamycin). In these studies, activity of the compounds are shown in-vitro and in-vivo, whereas the sensitivity of isolated bloodstream trypomastigotes to toxic oxygen radicals generated by naphthoquinones was not shown by the parasites in mice. The activity of the standard anti-trypanosomals-melarsoprol, pentamidine and suramin and tested compounds according to the present invention in in-vitro systems is shown in Table 3.
as §1

In experiment [5] the test system is T. cruzi. As to the kind of experiment: T. cruzi mouse model, in-vivo.
From the text: as §1

For experiment [6], the system named is T. cruzi. In words: T. cruzi trypomastigote (TRY) in-vitro screen. The class given is cell-based.
Method: (§5) In-vitro chemotherapy screens have for many years used models involving three stages of the T. cruzi life cycle: • (1) Epimastigote. Dividing populations are easily cultivated in a range of defined and semi-defined media, but are equivalent to a vector stage of the life cycle. • (2) Trypomastigote. These are isolated from a rodent host and can be maintained as a non-dividing population for 24-48 h in media. • (3) Amastigote. Dividing populations can be cultivated in muscle cells, fibroblasts and macrophages, following infection with trypomastigotes. After the initial infection, there is normally a period of 4-5 days during which the amastigotes divide before transforming, via the epimastigote stage, back to trypomastigotes which escape from the cell. Drug activity is measured during this 4-5 day period. A dividing host cell population, low infection rate, and the presence of trypomastigotes in the overlay can complicate the interpretation of results.
The test system of experiment [7] is L donovani. In words: Leishmania promastigote (PRO) in-vitro screen. The format is cell-based. The settings on record: Ld.
From the text: (§3) Following initial infection, the amastigote is the only form present in the mammalian host, surviving and dividing in various macrophage populations. Differences between the promastigote and amastigote in form and habitat are not matched by known biochemical dissimilarities. However, the drug susceptibility of the cultured promastigote, used in many early chemotherapy screens, contrasts markedly with that of the amastigote (see Table 1, below), most importantly to the clinically used pentavalent antimonials - sodium stibogluconate (Pentostam) and meglumine antimoniate (Glucantime).
(§4) Amastigotes of Leishmania can be cultivated in a wide range of mammalian cells, some of which may be used in in-vitro screens. These include (1) a Sticker dog sarcoma (fibroblast) cell line, (2) transformed rodent macrophage cell lines, (3) primary isolated mouse peritoneal macrophages (MP mo), and (4) human monocyte-derived macrophages (HM mo). The methods are similar for all models. Amastigote or promastigote infected cells are maintained in a medium containing the drug for 4-7 days, at 37 C for L. donovani and 33-35 C for L. major and L. mexicana. Drug activity is then assessed by counting (I) the number of infected host cells and/or (II) the number of amastigotes/100 host cells.
as §1

Experiment [8] deals with L major/L mexicana. In words: Leishmania promastigote (PRO) in-vitro screen. The format is cell-based. The settings on record: Lm.
From the text: as §3, §4, §1

Experiment [9] deals with L donovani. As to the kind of experiment: Leishmania mouse/hamster models, in-vivo. Further: key: - no/poor activity,; + fair/moderate activity,; ++ good/excellent activity. The following applies: Ld.
From the text: as §1

Experiment [10] deals with L major/L mexicana. As to the kind of experiment: Leishmania mouse/hamster models, in-vivo. Further: key: - no/poor activity,; + fair/moderate activity,; ++ good/excellent activity. The settings on record: Lm.
From the text: as §1

Experiment [11] has as its system L major/L mexicana. In words: Amastigote-promastigote (AM-PRO) transformation, in-vitro. The following applies: Lm. The class given is cell-based.
The test system of experiment [12] is T. cruzi. In words: T. cruzi epimastigote (EPI) in-vitro screen. The format is cell-based.
Method: as §5
Experiment [13] has as its system L donovani. In words: Amastigotes (AM) in cell lines, in-vitro. Further: key: - no/poor activity,; + fair/moderate activity,; ++ good/excellent activity. The format is cell-based. The settings on record: Ld., Amastigote.
From the text: as §4, §1

The subject of experiment [14] is L major/L mexicana. In words: Amastigotes (AM) in cell lines, in-vitro. Further: key: - no/poor activity,; + fair/moderate activity,; ++ good/excellent activity. The format is cell-based. The following applies: Lm., Amastigote.
From the text: as §4, §1

The subject of experiment [15] is L donovani. In words: Amastigote-promastigote (AM-PRO) transformation, in-vitro. The class given is cell-based. The following applies: Ld.
For experiment [16], the system named is T. cruzi. As to the kind of experiment: T. cruzi intracellular amastigote (AM) in-vitro screen. The class given is cell-based.
Method: Dividing populations can be cultivated in muscle cells, fibroblasts and macrophages, following infection with trypomastigotes. After the initial infection, there is normally a period of 4-5 days during which the amastigotes divide before transforming, via the epimastigote stage, back to trypomastigotes which escape from the cell. Drug activity is measured during this 4-5 day period. A dividing host cell population, low infection rate, and the presence of trypomastigotes in the overlay can complicate the interpretation of results.
Intracellular amastigote models can use a range of muscle (skeletal and cardiac) and fibroblast (e.g. HeLa, HePa) cell lines, macrophages, and chick embryo cells. […] To overcome the problems of overgrowth of the monolayer and a low percentage of infected cells, often associated with the use of cell lines, irradiated rat L6 myoblasts are used.
Experiment [17] concerns L donovani. As to the kind of experiment: Amastigotes (AM) in mouse or human macrophages (mos), in-vitro. The format is cell-based. The following applies: Ld., Amastigote.
From the text: as §4, §1

Experiment [18] deals with L major/L mexicana. The description is as above. The format is cell-based. The settings on record: Lm., Amastigote.
From the text: as §4, §1

As to `Cc1ccc(C(=O)Nc2ccc(S(=O)(=O)O)c3cc(S(=O)(=O)O)cc(S(=O)(=O)O)c23)cc1NC(=O)c1cccc(NC(=O)Nc2cccc(C(=O)Nc3cc(C(=O)Nc4ccc(S(=O)(=O)O)c5cc(S(=O)(=O)O)cc(S(=O)(=O)O)c45)ccc3C)c2)c1` [Suramin, suramin, reference compound], the “activity, cultivated bloodstream TRY” value in experiment [1] is listed as “+”. Besides, in experiment [2], the “activity, procyclic TRY” value was “-”. For the same compound, in experiment [3], the “activity, mouse model” value is reported as “+ +”. Moreover, in [4], the “activity, isolated bloodstream TRY” value is given as “-,+”.

With `CC(C)=CCNc1ncnc2c1ncn2[C@@H]1O[C@H](COP(=O)(O)O)[C@@H](O)[C@H]1O` [N6-Isopentenyl Adenosine-5'monophosphate, N^6-(Δ^2-isopentenyl) adenosine-5'-monophosphate], the “activity, mouse model” value is recorded as “+” in [5] (T. cruzi strain Sonya), “++” in experiment [5] (T. cruzi strain Y) and “+” in experiment [3]. For the same compound, the “activity, TRY” value in [6] (T. cruzi strain Sonya) and in experiment [6] (T. cruzi strain Y) was “++(Y,Sonya)” each time. For the same compound, in [1], the “activity, cultivated bloodstream TRY” value is given as “+”. The “Activity, PRO” value in [7] is reported as “+ +”; in experiment [8], “-”. Besides, the figures for the “Activity, mouse/ hamster models” value in experiment [9] and in experiment [10] were “+” and “-”, respectively. The “Activity, AM-PRO transform-ation” value in [11] was “+ +”; in experiment [15], “+”. The “activity, EPI” value in [12] (T. cruzi strain MR) was “+(Y,MR, Sonya)”; in experiment [12] (T. cruzi strain Sonya) it was “+(Y,MR, Sonya)”; in [12] (T. cruzi strain Y) it was “+(Y,MR, Sonya)”. In addition, the “Activity, AM in cell lines” value is “-” in experiment [13] and “+” in experiment [14]. Also, in experiment [2], the “activity, procyclic TRY” value is reported as “+ +”. The “activity, intracellular AM” value in experiment [16] (T. cruzi strain Sonya) and in [16] (T. cruzi strain Y) was “++(Y,Sonya)” each time. In addition, the “Activity, AM in mouse or human mos” value in [17] is “+”; in experiment [18], “+ +”. Besides, the “activity, isolated bloodstream TRY” value in [4] is reported as “+”.

Take `OC[C@H]1O[C@@H](n2cnc3c(NCc4ccccc4)ncnc32)[C@H](O)[C@@H]1O` [N6-Benzyladenosine, N^6-benzyladenosine]: the “activity, mouse model” value is “+(Y)+(Sonya)” in experiment [5] (T. cruzi strain Sonya), “+(Y)+(Sonya)” in experiment [5] (T. cruzi strain Y) and “+ +” in [3]. The “activity, TRY” value in experiment [6] (T. cruzi strain Sonya) and in experiment [6] (T. cruzi strain Y) was “+ (Y,Sonya)” throughout. In experiment [1], the “activity, cultivated bloodstream TRY” value is “+ +”. Moreover, the “Activity, PRO” value in experiment [7] and in [8] was “+ +” in each case. Further, the “Activity, mouse/ hamster models” value in [9] and in [10] was “-” each time. Also, the “Activity, AM-PRO transform-ation” value in [11] and in experiment [15] was “+ +” throughout. Moreover, the “activity, EPI” value was “+(Y,MR, Sonya)” in experiment [12] (T. cruzi strain MR); “+(Y,MR, Sonya)” in experiment [12] (T. cruzi strain Sonya); “+(Y,MR, Sonya)” in [12] (T. cruzi strain Y). For the same compound, the “Activity, AM in cell lines” value is “-” in experiment [13] and “+” in [14]. For the same compound, the “activity, procyclic TRY” value in experiment [2] was “+ +”. Moreover, the “activity, intracellular AM” value in [16] (T. cruzi strain Sonya) and in [16] (T. cruzi strain Y) was “+ (Y,Sonya)” in each case. Also, the “Activity, AM in mouse or human mos” value in [17] and in experiment [18] was “+” each time.

As for `OC[C@H]1O[C@@H](n2cnc3c(NCc4ccco4)ncnc32)[C@H](O)[C@@H]1O` [Furfuryladenosine], the figures for the “activity, mouse model” value in [5] (T. cruzi strain Sonya) and in [5] (T. cruzi strain Y) were “+” and “++”, respectively. For the same compound, the “activity, TRY” value in experiment [6] (T. cruzi strain Sonya) and in experiment [6] (T. cruzi strain Y) was “+ (Y,Sonya)” throughout. Also, the “activity, cultivated bloodstream TRY” value in experiment [1] is “+”. Besides, the “Activity, PRO” value in [7] and in experiment [8] was “+ +” each time. Besides, the “Activity, mouse/ hamster models” value in [9] and in [10] was “+” each time. Further, the “Activity, AM-PRO transform-ation” value in experiment [11] and in [15] was “+ +” throughout. The “activity, EPI” value is reported as “++(Y,MR, Sonya)” in experiment [12] (T. cruzi strain MR); “++(Y,MR, Sonya)” in experiment [12] (T. cruzi strain Sonya); “++(Y,MR, Sonya)” in experiment [12] (T. cruzi strain Y). Further, the “Activity, AM in cell lines” value in [13] was “-”; in experiment [14], “+”. For the same compound, the “activity, procyclic TRY” value in [2] is given as “+”. The “activity, intracellular AM” value in experiment [16] (T. cruzi strain Sonya) and in experiment [16] (T. cruzi strain Y) was “+ (Y,Sonya)” throughout. For the same compound, the “Activity, AM in mouse or human mos” value in experiment [17] is “+”; in [18], “+ +”. The “activity, isolated bloodstream TRY” value in [4] was “+ +”.

The values are drawn from patent EP0462621A2, “Use of particular compounds for manufacture of pharmaceutical formulations for treatment against various parasites, mycoplasmas, other indications and other infections” (Prendergast, Patrick Thomas, priority 1990, dated 1991).
